Numbers after ± are expanded uncertainties.
Legend:
[1] = 101 kPa, Liquid
[2] = xn = mol fraction of the nth substance listed; details: 101 kPa, Liquid, x1 = 1

With `CC(C)(C)O` [2-methylpropan-2-ol] the mass density ([1]; 303.15 K) was 775.412 ± 0.49 kg/m3, the mass density ([1]; 308.15 K) was 770.193 ± 0.49 kg/m3 and the mass density ([1]; 313.15 K) was 764.884 ± 0.5 kg/m3. It also gave a mass density ([1]; 318.15 K) of 759.488 ± 0.51 kg/m3 and a mass density ([1]; 323.15 K) of 754.015 ± 0.52 kg/m3.
With `CC(C)(C)O` [2-methylpropan-2-ol] + Clc1ccccc1 the mass density ([2]; 303.15 K) was 775.412 ± 0.49 kg/m3, the mass density ([2]; 308.15 K) was 770.193 ± 0.49 kg/m3 and the mass density ([2]; 313.15 K) was 764.884 ± 0.5 kg/m3. It also gave a mass density ([2]; 318.15 K) of 759.488 ± 0.51 kg/m3 and a mass density ([2]; 323.15 K) of 754.015 ± 0.52 kg/m3.
Molecule `CCCCO` [butan-1-ol] has a mass density ([1]; 288.15 K) of 813.373 ± 0.45 kg/m3, a mass density ([1]; 293.15 K) of 809.573 ± 0.45 kg/m3 and a mass density ([1]; 298.15 K) of 805.762 ± 0.46 kg/m3. For the same molecule, the mass density ([1]; 303.15 K) was 801.923 ± 0.47 kg/m3, the mass density ([1]; 308.15 K) was 798.053 ± 0.47 kg/m3 and the mass density ([1]; 313.15 K) was 794.147 ± 0.48 kg/m3.
With `CCCCO` [butan-1-ol] + Clc1ccccc1 the mass density ([2]; 288.15 K) was 813.373 ± 0.45 kg/m3, the mass density ([2]; 293.15 K) was 809.573 ± 0.45 kg/m3 and the mass density ([2]; 298.15 K) was 805.762 ± 0.46 kg/m3. For the same molecule, the mass density ([2]; 303.15 K) was 801.923 ± 0.47 kg/m3, the mass density ([2]; 308.15 K) was 798.053 ± 0.47 kg/m3 and the mass density ([2]; 313.15 K) was 794.147 ± 0.48 kg/m3.
Work on `CCC(C)O` (stereo unspecified) [butan-2-ol] yielded a mass density ([1]; 288.15 K) of 810.689 ± 0.55 kg/m3, a mass density ([1]; 293.15 K) of 806.646 ± 0.56 kg/m3 and a mass density ([1]; 298.15 K) of 802.528 ± 0.56 kg/m3. The mass density ([1]; 303.15 K) was 798.326 ± 0.56 kg/m3, the mass density ([1]; 308.15 K) was 794.03 ± 0.57 kg/m3 and the mass density ([1]; 313.15 K) was 789.632 ± 0.58 kg/m3.
Molecule `CCC(C)O` (stereo unspecified) [butan-2-ol] + Clc1ccccc1 has a mass density ([2]; 288.15 K) of 810.689 ± 0.55 kg/m3, a mass density ([2]; 293.15 K) of 806.646 ± 0.56 kg/m3 and a mass density ([2]; 298.15 K) of 802.528 ± 0.56 kg/m3. For the same molecule, the mass density ([2]; 303.15 K) was 798.326 ± 0.56 kg/m3, the mass density ([2]; 308.15 K) was 794.03 ± 0.57 kg/m3 and the mass density ([2]; 313.15 K) was 789.632 ± 0.58 kg/m3.
Molecule `Clc1ccccc1` [chlorobenzene] has a mass density ([1]; 288.15 K) of 1111.81 ± 0.3 kg/m3, a mass density ([1]; 293.15 K) of 1106.43 ± 0.29 kg/m3 and a mass density ([1]; 298.15 K) of 1101.04 ± 0.28 kg/m3. It also gave a mass density ([1]; 303.15 K) of 1095.64 ± 0.28 kg/m3, a mass density ([1]; 308.15 K) of 1090.23 ± 0.27 kg/m3 and a mass density ([1]; 313.15 K) of 1084.82 ± 0.26 kg/m3. The mass density ([1]; 318.15 K) was 1079.42 ± 0.25 kg/m3 and the mass density ([1]; 323.15 K) was 1073.97 ± 0.24 kg/m3.
`CCCCCO` [pentan-1-ol] gave a mass density ([1]; 288.15 K) of 818.282 ± 0.54 kg/m3, a mass density ([1]; 293.15 K) of 814.635 ± 0.55 kg/m3 and a mass density ([1]; 298.15 K) of 810.968 ± 0.55 kg/m3. The mass density ([1]; 303.15 K) was 807.278 ± 0.55 kg/m3, the mass density ([1]; 308.15 K) was 803.558 ± 0.56 kg/m3 and the mass density ([1]; 313.15 K) was 799.817 ± 0.56 kg/m3.
With `CCCCCO` [pentan-1-ol] + Clc1ccccc1 the mass density ([2]; 288.15 K) was 818.282 ± 0.54 kg/m3, the mass density ([2]; 293.15 K) was 814.635 ± 0.55 kg/m3 and the mass density ([2]; 298.15 K) was 810.968 ± 0.55 kg/m3. For the same molecule, the mass density ([2]; 303.15 K) was 807.278 ± 0.55 kg/m3, the mass density ([2]; 308.15 K) was 803.558 ± 0.56 kg/m3 and the mass density ([2]; 313.15 K) was 799.817 ± 0.56 kg/m3.
`CCCO` [propan-1-ol] gave a mass density ([1]; 288.15 K) of 807.69 ± 0.46 kg/m3, a mass density ([1]; 293.15 K) of 803.703 ± 0.46 kg/m3 and a mass density ([1]; 298.15 K) of 799.692 ± 0.47 kg/m3. It also gave a mass density ([1]; 303.15 K) of 795.65 ± 0.47 kg/m3, a mass density ([1]; 308.15 K) of 791.576 ± 0.48 kg/m3 and a mass density ([1]; 313.15 K) of 787.466 ± 0.49 kg/m3.
With `CCCO` [propan-1-ol] + Clc1ccccc1 the mass density ([2]; 288.15 K) was 807.69 ± 0.46 kg/m3, the mass density ([2]; 293.15 K) was 803.703 ± 0.46 kg/m3 and the mass density ([2]; 298.15 K) was 799.692 ± 0.47 kg/m3. The mass density ([2]; 303.15 K) was 795.65 ± 0.47 kg/m3, the mass density ([2]; 308.15 K) was 791.576 ± 0.48 kg/m3 and the mass density ([2]; 313.15 K) was 787.466 ± 0.49 kg/m3.

— the NIST ThermoML archive (doi:10.1016/j.fluid.2007.09.028)
